Key:
[1] = test system: Melanocytes (Mel-Ab cells); test: Melanin production inhibiting effect in mouse melanocytes; assay type: cell-based; conditions: Mel-Ab cells, 3 consecutive days; hydroquinone 10 ppm
Experimental: The melanin production inhibiting effect of the syringaresinol obtained in Example was evaluated using mouse melanocytes. First, melanocytes (Mel-Ab cells) derived from C57BL/6 (treated with Dooley et al.'s method) were cultured under the condition of 37° C. and 5% CO2 in Dulbecco's modified Eagle's medium (DMEM) containing 10% fetal bovine serum, 100 nM 12-O-tetradecanoylphorbol-13-acetate and 1 nM cholera toxin. […] After removing the culture medium and washing with PBS, the cells were dissolved with 1 N sodium hydroxide and absorbance was measured at 400 nm. Melanin production inhibiting rate (%) was calculated according to Equation 2 from the measured absorbance. Melanin production inhibiting rate (%)=100−(Absorbance of test substance) /(Absorbance of control substance)×100 [Equation 2]

TGF-β1 = TGF-β1 production in fibroblasts (ELISA); assay type: cell-based, human; conditions: HDF cells, 24 hours
Experimental: Human fibroblast HDF cells were cultured in substantially the same manner as in Test Example 10.
The cultured cells were treated with syringaresinol dissolved in DMSO to a concentration of 20, 50 or 100 μM for 24 hours. After 24 hours, the cell culture was recovered.
The quantity of TGF-β1 produced in the recovered cell culture was measured using the Quantikine™ high-sensitivity ELISA kit (R&D Systems, USA) according to the manufacturer's instructions. All the samples required for the measurement of the quantity of TGF-β1 were provided by the kit. First, the recovered cell culture was transferred to a 96-well microplate uniformly coated with TGF-β1 antibody and it was allowed for antigen-antibody reaction to proceed at 37° C. for 1 hour. After removing the cell culture, the wells were washed 3 times with PBS. Then, horseradish peroxidase-conjugated secondary antibody was added to each well and it was allowed for antigen-antibody reaction to proceed for 1 hour. Subsequently, after adding tetramethylbenzidine as a chromogenic substrate to each well, followed by reaction at room temperature for 15 minutes, 1 N sulfuric acid was added to stop the reaction. Then, absorbance was measured at 450 nm using a spectrophotometer. After drawing a standard curve using a standard solution, the TGF-β1 production amount in the cell culture with the test substance added was calculated from the measured absorbance.

SIRT1 = SIRT1 expression promoting effect in human keratinocytes; assay type: cell-based; conditions: HaCaT cells, 20, 50 or 100 μM, 24 hours, FIG. 3
Experimental: Human keratinocyte HaCaT cells or human fibroblast HDF cells were cultured under the condition of 37° C. and 5% CO2 in DMEM ((Gibco 1210-0038)) containing 10% fetal bovine serum.
The cultured cells were treated with syringaresinol dissolved in DMSO at a concentration of 20, 50 or 100 μM for 24 hours. Separately from this, the cells were treated with DMSO of 1/1000 of the volume of the culture medium as a negative control. After treating with the test substance, the cells were washed twice with cold PBS and RNA was extracted using TRIzol reagent (Invitrogen). Then, cDNA was synthesized using 1 μg/μL of the extracted RNA and a reverse transcription system (Promega). The expression pattern of the SIRT1 and GAPDH genes was monitored using the synthesized cDNA and predesigned primers and probes (Applied Biosystems; SIRT1, Hs01009006_ml; GAPDH, Hs99999905_ml). PCR reaction and analysis were carried out using the Rotor-Gene 3000 system (Corbett Research, Sydney, Australia). The result is shown in FIG. 3 (keratinocytes) and FIG. 4 (fibroblasts).

[2] = test system: Melanocytes (Mel-Ab cells); test: Test of cytotoxicity (crystal violet cell viability) in mouse melanocytes; assay type: cell-based; conditions: 24 hours
Experimental: Cytotoxicity was tested for syringaresinol in mouse melanocytes as follows.
Melanocytes (Mel-Ab cells) derived from C57BL/6 (treated with Dooley et al.'s method) were cultured under the condition of 37° C. and 5% CO2 in Dulbecco's modified Eagle's medium (DMEM) containing 10% fetal bovine serum, 100 nM 12-O-tetradecanoylphorbol-13-acetate and 1 nM cholera toxin. The cultured Mel-Ab cells were detached with 0.25% trypsin-EDTA, cultured in a 24-well plate to a concentration of 10^5 cells/well and then treated with the syringaresinol prepared in Example. After culturing for 24 hours, the cells were washed with phosphate buffered saline (PBS, pH 7.2) and then stained using 0.1% crystal violet (Sigma) and 10% ethanol (EtOH) for 5 minutes at room temperature. After completely removing free crystal violet, the cells were washed 3 times with PBS (pH 7.2). The stained cells were treated with 95% ethanol (EtOH) for 1 hour at room temperature to extract crystal violet. The absorbance of the extract was measured at 540 nm using the Lambda 25 spectrophotometer (PerkinElmer) and cell viability (%) was calculated according to Equation 1.
Cell viability (%)=(A/B)×100 [Equation 1]
A: absorbance in the presence of syringaresinol
B: absorbance in the absence of syringaresinol

[3] = Free radical scavenging ability (DPPH); conditions: 37° C. 30 minutes, FIG. 2
Experimental: A radical solution was prepared by dissolving 100 µM diphenylpicrylhydrazyl (DPPH), composed of stable free radicals, in 99% ethanol. A reaction solution was prepared by dissolving syringaresinol in distilled water with different concentrations (pg/mL) and mixing the syringaresinol solution with the radical solution. A reaction solution not containing syringaresinol was used as a negative control and a reaction solution containing vitamin C (Vit C) was used as a positive control. After sufficiently reacting at 37° C. for 30 minutes, radical scavenging ability was evaluated by measuring absorbance at 515 nm. The radical scavenging ability was calculated relative to the negative control group as 100.

[4] = Skin whitening effect when orally administered, UV-irradiated brown guinea pig; assay type: in vivo; conditions: 1% in feed, 5 weeks, oral
Experimental: Minimal erythemal dose was measured after irradiating UV to guinea pigs. After grouping the guinea pigs with 10 per each group, UV of the minimal erythemal dose was irradiated once a day, for a total of 3 times. The guinea pigs were allowed free access to feed for 5 weeks. The feed contained 1% syringaresinol or 1% vitamin C (Vit C) as a positive control. Skin pigmentation was measure using a colorimeter in substantially the same manner as in Test Example 6.

filaggrin = test: Filaggrin expression promoting effect in human keratinocytes; assay type: cell-based; conditions: HaCaT cells, FIG. 5
Experimental: Human keratinocyte HaCaT cells were cultured in substantially the same manner as in Test Example 10.
cDNA was synthesized in substantially the same manner as in Test Example 10 and the expression pattern of the filaggrin, involucrin and GAPDH genes was monitored substantially the same manner as in Test Example 10 using the synthesized cDNA and predesigned primers and probes (Applied Biosystems; […]; GAPDH, Hs99999905_ml).

## COc1cc(C2OCC3C(c4cc(OC)c(O)c(OC)c4)OCC23)cc(OC)c1O (stereo not drawn) [Syringaresinol, syringaresinol]
[1]
  Melanin production inhibiting rate (%): 85.7%
TGF-β1; 20 μM
  TGF-β1 production amount: 43.3 ± 1.0
TGF-β1; 50 μM
  TGF-β1 production amount: 87.2 ± 4.2
TGF-β1; 100 μM
  TGF-β1 production amount: 92.1 ± 5.6
SIRT1
  Increase of SIRT1 expression: ≥ 4 times
[2]
  Cell viability (%): 98.6%
[3]
  Free radical scavenging ability: scavenge free radicals in a concentration-dependent manner and the effect is superior to that of vitamin C
[4]
  Skin color brightness (ΔL*): 1.67 ± 0.25
filaggrin
  Expression of filaggrin: increases the expression of filaggrin

— patent publication US20150290105A1, “COMPOSITION COMPRISING SYRINGARESINOL FOR IMPROVING THE SKIN” (AMOREPACIFIC CORPORATION, priority 2011, published 2015)
